Data from US12201628B2, “Neuronal modulation” (priority 2013, dated 2025).
Entries after “also recorded” stand apart in the source; their conditions may differ.

Legend:
[1] = tested on: immune populations in the spleen; test: CyTOF of spleen after VTA DA activation and LPS injection; format: in vivo, mice; settings: spleen 24 h after VTA DA activation and LPS injection; Gq vs control
Description: FIGS. 3A-3E. Are graphs showing the effects of VTA DA neurons activation on a numbers of defined immune populations in the spleen as determined by CyTOF. FIG. 3A is an experimental timeline: spleens were collected from control and Gq mice 24 h after VTA DA activation and LPS injection (5 ug/kg). […] The individual ions were counted and then parsed into a flow cytometry file format. This file can be analyzed by traditional flow cytometry software or by SPADE, which allows integrating the complex information. SPADE analysis is composed of several steps: A density-dependent down-sampling of the original data is clustered. Adjacent clusters are drawn in alternating colors. Minimum spanning tree that connects the cell clusters is generated and color-coded. Nodes are colored by the number of cells in each cluster (7-547 cells). This allows visualization of the changes in the various immune populations. Cluster of CD8, CD4, NK B cell and monocytes are indicated.
CyTOF mass cytometry: Single-cell suspensions of cells from the blood/bone marrow/spleen/lymph nodes of the treated mice are stained with monoclonal or polyclonal antibodies, conjugated to metal probes. […]

GFP-expressing E. coli = test: In-vivo E. coli phagocytosis; parameters: species or system mice; settings: E. coli injected 24 h after VTA activation, analysed 2 h later; vs controls
Description: Virus-injected mice were IP treated with CNO. Twenty four hours later, GFP-expressing E. coli (MG165K12; 8×10^8 CFU/mouse) were injected IP. After two hours, the peritoneal lymphocytes were collected by peritoneal lavage. For peritoneal lavage, the mice were sacrificed and their skin was cleaned with 70% ethanol. Then, 5 ml ice-cold PBS containing 1% fetal bovine serum were injected into the peritoneum, followed by gentle massage to allow distribution of the lavage fluid throughout the peritoneal cavity. The fluid was then collected using a 5 ml syringe attached to a 21-gauge needle, and cells were then washed twice in FACS staining buffer (PBS containing 1% bovine serum albumin and 0.05% sodium azide). In order to evaluate the degree of monocyte phagocytosis of the fluorescent bacteria, peritoneal lavage cells were stained with PerCP-conjugated anti-CD11b antibody (M1/70, Biolegend). All samples were analyzed on an LSRFortessa cell analyzer (BD Biosciences, NJ). […]
To determine the effects of VTA activation on antibacterial activity in vivo, the VTA-dopaminergic neurons were activated, and 24 h later injected the mice with GFP-expressing E. coli. Two hours later, lymphocytes were extracted from the peritoneal cavity of the mice and determined by flow cytometry GFP levels; only cells that phagocytized the E. coli could express GFP.

[2] = mice; cited from earlier work
E. coli = test: In-vitro E. coli killing assay with spleen monocytes/macrophages; format: cell-based, mice; settings: monocytes/macrophages from spleens 24 h after CNO; VTA-activated vs control; intact SNS
Description: To evaluate the anti-bacterial efficiency of the spleen monocytes, an in-vitro killing assay was performed. Splenocytes from VTA-activated and control mice were extracted 24 hour after IP injection of CNO. Splenocytes underwent a monocyte enrichment negative selection procedure using the EasySep mouse monocyte enrichment kit (Stem-Cells Technologies, Vancouver, Canada). Enriched monocytes co-cultured with E. coli bacteria at a 12:1 ratio, in RPMI medium containing 10% foetal bovine serum, and incubated at 37° C. for 4 h. Monocytes were then lysed by adding 0.1% Triton X-100 (Sigma-Aldrich, US), and the lysates were diluted ×1000 in PBS. The diluted media were plated onto agar petri dishes, which were then incubated overnight at 37° C. Twelve hours later, the number of remaining bacteria colonies was counted.
To test for functional changes in immune activity following VTA activation, monocytes/macrophages were assayed (the most profound changes in the CyTOF screen). Due to the increase in CD206 levels on these cells, their phagocytic capacity was examined. Cd11b+, Ly6G-cells were isolated from the spleens of both VTA-activated and control mice 24 h following CNO injection. Cells were cultured with E. coli for four hours and then lysed.
The remaining media was plated on agar plates and counted the remaining bacteria colonies. […]

[3] = tested on: solid melanoma (B16) tumor and Lewis lung carcinoma (LLC); test: Tumor growth after VTA dopaminergic neuron activation; format: in vivo, mice
Description: For the expression of DREADDs, injected Cre-dependent adeno-associated virus (AAV) vector expressing DREADDs fused with red fluorescent protein mCherry, was injected into the VTA of tyrosine hydroxylase (TH)-Cre transgenic mice.
Then the mice were challenged with 500×10^3 LLC cells (Lewis Lung carcinoma Cells) or 200×10^3 B16 melanoma tumor cells (gently injected subcutaneously into the middle right flank of each animal).
28 days from the tumor cells injection a group of the tumor-bearing animals were euthanized to dissect the tumor tissue and check for metastasis (FIG. 12). The spleen bone marrow and tumors were isolated to characterize the changes in immune cells. The CyTOF was used to analyze the immune system as well as FACS analysis.

Q: Which “levels of CD69” value [1] does the source give for `C[N+]1([O-])CCN(C2=Nc3cc(Cl)ccc3Nc3ccccc32)CC1` [CNO, clozapine-N-oxide] here?
A: Its value is “No change was detected”.

Q: And the “number of CD11b+GFP+ cells in the peritoneum” value (GFP-expressing E. coli)?
A: Its value is “increased number of CD11b+GFP+ cells”.

Q: What about the “conversion of CNO to clozapine” value [2] of the same compound?
A: The value was “does not convert to clozapine”.

Q: And the “number of remaining E. coli colonies” value (E. coli)?
A: The value was “significant decrease”.

Q: And the “tumor weight / size (B16 melanoma)” value ([3]; CNO daily, two sessions of three days, Gq group vs control)?
A: The value was “Reduced tumor size”.

Q: What about the “reduction in tumor size” value ([3]; VTA-activated vs control mice, B16 melanoma and LLC) of the same compound?
A: Its value is “over 40%”.

Q: What about the “abundance of CD11b+Gr1+ MDSCs” value ([3]; VTA-activated vs control mice, spleen, bone marrow and tumor) of the same compound?
A: Its value is “significant reduction in the abundance; also recorded: reduced abundance of MDSCs”.
